# In paper PMC9224512, “New Insights into the Determinants of Specificity in Human Type I Arginase: Generation of a Mutant That Is Only Active with Agmatine as Substrate” (International Journal of Molecular Sciences, 2022):
# Residue numbers refer to the chain shown, from its start.
# How the values were obtained:
# Format in all cases: biochemical
# [1] = molecular target: T1, type I human arginase D181T/V182E + ins F (Homo sapiens, UniProt P05089, D181E/D181T/INS180T/V182E/V182F); test: Kinetic and inhibition studies, D181T/V182E + ins F; details: substrate arginine
# T1 sequence (P05089 with tags, fused parts or gaps INS180T/D181E/V182F): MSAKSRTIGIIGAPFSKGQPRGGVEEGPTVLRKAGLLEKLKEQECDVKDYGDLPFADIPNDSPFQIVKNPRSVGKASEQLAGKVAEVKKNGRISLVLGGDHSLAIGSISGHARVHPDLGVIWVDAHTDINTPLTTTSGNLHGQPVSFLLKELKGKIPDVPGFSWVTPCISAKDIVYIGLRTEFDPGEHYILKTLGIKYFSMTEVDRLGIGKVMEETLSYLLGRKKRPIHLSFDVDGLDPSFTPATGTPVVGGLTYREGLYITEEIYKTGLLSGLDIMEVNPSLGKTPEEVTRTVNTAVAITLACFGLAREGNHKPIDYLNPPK
# Protocol: (§1) Bacterial cultures were grown with shaking at 37 °C in Luria Broth media, in the presence of ampicillin (100 μg/mL). The wild-type and mutant human liver arginase cDNAs were directionally cloned into the pBluescript II KS(+) expression vector and then expressed in E. coli JM109, following induction with 1 mM isopropyl β-D-thiogalactopyranoside. The bacterial cells were disrupted by sonication on ice (5 × 30 s pulses), centrifuged for 20 min at 12,000× g, and the obtained supernatant was precipitated with ammonium sulfate (60% saturation). The pellet, collected by centrifugation at 12,000× g for 10 min, was re-suspended in buffer 5 mM Tris–HCl (pH 7.5) containing 2 mM MnCl2 and dialyzed for 6 h at 4 °C against the same buffer. After incubation with 5 mM MnCl2 for 10 min at 60 °C, the enzyme variants were purified as previously described. The purity of the enzymes was evaluated by SDS–PAGE stained by Coomassie blue and immunodetection using an anti- rat arginase I antibody.
# (§2) The single, double, triple, and chimera variants of human arginase type I were obtained by PCR, using the QuickChange site-directed mutagenesis kit (Stratagene, La Jolla, CA, USA); the plasmid pBluescript II KS(+) containing the human liver arginase cDNA was used as template. To obtain the chimeric species of human arginase type I, serial mutations were made in each loop to be modified, using as template DNA the wild-type arginase gene or the previous done mutation, subcloned in the plasmid pBluescript II KS (+). Specifically, the residues present in the arginase structure were replaced by those corresponding to the agmatinase sequence of E. coli.
# (§3) All assays were initiated by adding the enzyme to a previously equilibrated buffer with the substrate in solution (the concentrations of used substrates were between 0.2–3 fold the Km). Urea was determined by a colorimetric method with α-isonitrosopropiophenone. The protein concentrations were determined by the Bradford’s method, with bovine serum albumin as standard. Initial velocity and enzymatic inhibition experiments were performed in duplicate and repeated three times. The inhibitory patterns were initially determined by double reciprocal plots and re-plots of intercepts and slopes versus inhibitor concentrations. […] Velocities are expressed as μmol of urea/10 min.
# [2] = molecular target: T2, human arginase type I N130D-S137C-N139D (Homo sapiens, UniProt P05089, N130D/N139D/S137C); test: Kinetic and inhibition studies, triple mutant
# T2 sequence (P05089 1-322 N130D/S137C/N139D): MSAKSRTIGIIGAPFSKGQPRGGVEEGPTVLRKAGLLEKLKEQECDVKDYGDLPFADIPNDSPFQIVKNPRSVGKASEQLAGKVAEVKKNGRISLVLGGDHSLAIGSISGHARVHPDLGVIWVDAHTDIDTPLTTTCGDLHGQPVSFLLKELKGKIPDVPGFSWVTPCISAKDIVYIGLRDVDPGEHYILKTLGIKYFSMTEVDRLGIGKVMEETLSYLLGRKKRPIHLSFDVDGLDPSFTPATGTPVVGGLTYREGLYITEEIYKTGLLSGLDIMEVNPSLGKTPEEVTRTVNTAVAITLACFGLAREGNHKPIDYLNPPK
# Protocol: as §1, §2
# (§4) All assays were initiated by adding the enzyme to a previously equilibrated buffer with the substrate in solution (the concentrations of used substrates were between 0.2–3 fold the Km). Urea was determined by a colorimetric method with α-isonitrosopropiophenone. The protein concentrations were determined by the Bradford’s method, with bovine serum albumin as standard. […]
# [3] = molecular target: T3, human arginase type I S137C (Homo sapiens, UniProt P05089, S137C); test: Kinetic and inhibition studies, S137C mutant
# T3 sequence (P05089 1-322 S137C): T2 sequence (P05089 1-322 N130D/S137C/N139D) with D130N, D139N
# Protocol: as §1, §2, §3
# [4] = molecular target: T4, type I human arginase V182E (Homo sapiens, UniProt P05089, V182E); test: Kinetic and inhibition studies, V182E mutant; details: substrate arginine
# T4 sequence (P05089 1-322 V182E): T2 sequence (P05089 1-322 N130D/S137C/N139D) with D130N, C137S, D139N, V182E
# Protocol: as §1, §2, §3
# [5] = molecular target: T5, human arginase type I S137C-N139D (Homo sapiens, UniProt P05089, N139D/S137C); test: Kinetic and inhibition studies, S137C-N139D mutant
# T5 construct: made in house; host or cells: E. coli JM109
# T5 sequence (P05089 1-322 S137C/N139D): T2 sequence (P05089 1-322 N130D/S137C/N139D) with D130N
# Protocol: as §1, §2, §4
# [6] = substrate = labelled compound, pH 9.5, 2 mM Mn2+
SMILES,Inhibition type [1],Kis [1] [mM],Ki ([2]; read-out: Ki^orn) [mM],Ki ([3]; read-out: Ki^orn) [mM],Inhibition type [4],Kis [4] [mM],Ki ([5]; read-out: Ki^orn) [mM],kcat [1] [s⁻¹],"kcat, times lower than the wild-type arginase [1] [times]","Km ([1]; pH 9.5, 2 mM Mn2+) [mM]",kcat ([2]; substrate = labelled compound) [s⁻¹],"Km [2, 6] [mM]",kcat ([3]; substrate = labelled compound) [s⁻¹],"Km [3, 6] [mM]",kcat [4] [s⁻¹],"Km ([4]; pH 9.5, 2 mM Mn2+) [mM]",kcat ([5]; substrate = labelled compound) [s⁻¹],"Km [5, 6] [mM]"
"NCCC[C@H](N)C(=O)O [Ornithine, L-ornithine]",Competitive,18 ± 6,5.4,7.6,Competitive,3.2 ± 0.2,8.4,–,–,–,–,–,–,–,–,–,–,–
"N=C(N)NCCC[C@H](N)C(=O)O [Arginine, L-arginine]",–,–,–,–,–,–,–,8.1 ± 1,24,20 ± 5,4,6.9,75,3.2,187 ± 10,2.4 ± 0.2,83,10.8
